In patent US20030103900A1, “Use of disease-associated organisms” (priority 2001, published 2003):

The compounds below were run on non-Hodgkins lymphoma (assay: broad spectrum antibiotic cover in a non-Hodgkins lymphoma patient with mixed bacterial pneumonia). Conditions: given together: Penicillin 1 million units three times a day i.m., chloramphenicol 1.25 g three times a day i.m., flagyl 400 mg three times a day orally; following one week.
Type: in vivo, human
Source text: If, on the other hand, a disease-associated organism is found within the body of a patient, which organism is classified as beneficial regarding a targeted disease (i.e., the activity of the organism is either causative or synergistic toward the disease), a therapeutic agent which is antagonistic toward such beneficial organism may be administered to the patient for aiding the patient's immune system in fighting against such causative or synergistic organism. Organisms have often been reported to exist in cancer patients both in tumor biopsies and in overt disease, in the treatment of a non-Hodgkins lymphoma patient suffering from mixed bacterial pneumonia, inventor prescribed broad spectrum antibiotic cover-Penicillin 1 million units three times a day, chloramphenicol 1.25 g three times a day, and flagyl 400 mg three times a day; the first two by intramuscular route and the flagyl orally.

Compound | change of cancerous lymph nodes
O=C(N[C@H](CO)[C@H](O)c1ccc([N+](=O)[O-])cc1)C(Cl)Cl [chloramphenicol] | cancerous lymph nodes shrank and softened
Cc1ncc([N+](=O)[O-])n1CCO [flagyl] | cancerous lymph nodes shrank and softened
Penicillin | cancerous lymph nodes shrank and softened
